Assay results from US4794103A, “Pharmaceutical compositions containing peptides of the cholecystokinin-cerulein group for the therapy of shock conditions and of respiratory and cardiocirculatory insufficiencies” (priority 1986, dated 1988).

Test system: female Wistar rats
Experiment: Hypovolemic shock produced by bleeding in anesthetized rats, intravenous bolus of the polypeptides
Assay type: in vivo, rat
Settings: for MEAN ARTERIAL PRESSURE 15-30 min. After bleeding: mean ± S.E.
Procedure: Intact and adrenalectomized female Wistar rats (Nossan, Correzzano, Milano, Italy) weighing 250 to 300 g were used. Following anesthetization and heparinization a common carotid artery and an iliac vein were cannulated in rats. Arterial blood pressure was recorded by means of a pressure transducer (Statham P23 Db) connected to a polygraph (Battaglia-Rangoni, Bologna, Italy). […] Hypovolemic shock was produced by intermittently withdrawing blood from the venous catheter until mean arterial pressure fell to 10-25 mm Hg. […] Following bleeding and mean blood pressure stabilization in the range of 10-25 mm Hg, animals were given intravenous bolus of the polypeptides. Control animals were intravenously injected with the same volume of saline (0.1 ml/100 g).

Substance | No. of deaths 120 min. after treatment (20 μg/kg i.v. after bleeding, 6 rats used (saline: 12 of 12 died)) | MEAN ARTERIAL PRESSURE 15-30 min. After bleeding (20 μg/kg i.v. after bleeding, 6 rats, before bleeding 75.17 ± 6.62, after bleeding 12.17 ± 1.11, P < 0.01 versus value after bleeding) [mm Hg] | No. of deaths 120 min. after treatment (5 μg/kg i.v. after bleeding, 6 rats used (saline: 12 of 12 died)) | MEAN ARTERIAL PRESSURE 15-30 min. After bleeding (5 μg/kg i.v. after bleeding, 6 rats, before bleeding 71.17 ± 6.07, after bleeding 11.83 ± 0.79, P < 0.05 versus value after bleeding) [mm Hg] | No. of deaths 120 min. after treatment (10 μg/kg i.v. after bleeding, 5 rats used (saline: 12 of 12 died)) | MEAN ARTERIAL PRESSURE 15-30 min. After bleeding (10 μg/kg i.v. after bleeding, 5 rats, before bleeding 68.40 ± 4.98, after bleeding 14.00 ± 1.82, P < 0.01 versus value after bleeding) [mm Hg] | No. of deaths 120 min. after treatment (20 μg/kg i.v. after bleeding, 5 rats used (saline: 12 of 12 died)) | MEAN ARTERIAL PRESSURE 15-30 min. After bleeding (20 μg/kg i.v. after bleeding, 5 rats, before bleeding 72.00 ± 4.67, after bleeding 14.40 ± 0.87, P < 0.01 versus value after bleeding) [mm Hg]
cerulein | 0 | 54.67 ± 4.29 | – | – | – | – | – | –
CCK8 | – | – | 2 | 26.33 ± 7.05 | 0 | 41.80 ± 3.79 | 0 | 52.40 ± 2.73
